Data published in US5434138A, “Gonadoliberin antagonists” (Hoechst Aktiengesellschaft, priority 1990, dated 1995).

How the values were obtained:
[1] = test system: serum testosterone; assay: Testosterone-lowering effect on infusion by minipumps; format: in vivo, rat; details: male rats, subcutaneous infusion by minipumps for 7 days
Description: (§1) The peptides according to the invention have been tested for an atrophic effect on androgen-dependent organs and for an LH- and testosterone-lowering effect in serum and blood of male rats by continuous infusion (MINIPUMPS). The ovulation-inhibiting effect has been tested on female rats. The histamine release was checked using rat peritoneal mast cells.
The testosterone-lowering effect was tested on male rats during subcutaneous infusion for 7 days. The biological effect on androgen-dependent organs and serum testosterone was recorded. The test compounds were administered by subcutaneous infusion using minipumps at a rate of […] for 7 days. The test compounds were dissolved in sterile 5 % strength mannitol solution. The minipumps were implanted subcutaneously in the region of the back under anesthesia and aseptic conditions.
Serum testosterone was extracted with diethyl ether and determined by a specific RIA.
Testosterone-lowering effect on infusion by minipumps

[2] = test system: immature female rats (LHRH-induced ovulation); assay: Rat antiovulation assay; format: in vivo; details: PMSG-pretreated immature female rats, phenobarbital; 800 ng LHRH s.c. 2 hours after antagonist
Description: as §1
The ovulation-inhibiting effect was tested in immature female rats which had been pretreated with PMSG (pregnant mare serum gonadotropin) in order to induce follicle maturation, Spontaneous ovulation was prevented by barbiturate (phenobarbital). A test dose of 800 ng of LHRH was injected subcutaneously 2 hours after the antagonists. The test substances were injected subcutaneously dissolved in 5% strength mannitol solution. The next day the Fallopian tubes were dissected out and stained with Patent Blue, and the tubular oocytes were counted under a microscope. The dose for an ovulation-inhibiting effect (ED 100) was determined for all the antagonists.

[3] = test system: rat peritoneal mast cells; assay: Histamine release from peritoneal mast cells; format: cell-based, Wistar rats; details: 37° C., 30 minutes
Description: as §1
Wistar rats were sacrificed by decapitation. 50 ml of a 0.9% strength NaCl solution were injected into the abdominal cavity and, after gentle massage, the abdominal wall was opened. The fluid, which contains the peritoneal cells, was aspirated using a Pasteur pipette and then centrifuged. The pelleted cells were resuspended and, after testing viability, diluted to 10^6 mast cells/ml.
150 μl of the dissolved gonadoliberin antagonist were added to a suspension of 10^5 mast cells in 150 μl of 0.9 % strength NaCl solution. After incubation at 37° C. for 30 minutes, the test tubes were centrifuged and the supernatant was removed. The LHRH antagonist Ac-D-Nal-D-p-Cl-D-Phe-D-Trp-Ser-Tyr-D-Ser(Rha)-Leu-Arg-Pro-Azagly-NH2, known to be a compound which induces histamine release by mast cells, was used as comparison substance. To determine the total histamine release (100%), the mast cell suspensions were rapidly boiled over a Bunsen burner.
A modified form of the methods described by Skofitsch et al. (J. Chromatography, 226, 53-59, 1981) and Siraganian and Hook (in Manual of Clinical Laboratory Immunology; eds: Rose et al. American Society of Microbiology, Washington D.C., pages 675, 1986) was used. Briefly summarized, 100 μl of a 1N NaOH and 100 μl of phthalaldehyde were added to 250 μl of supernatant and shaken vigorously. After a reaction time of 2 minutes, the fluorophore was converted into a more strongly fluorescent and stable product by acidification with 50 μl of 3N HCl. 10 μl of the supernatant were injected into the Chromspher C8 column (Chrompak FRW) of the HPLC system. This system comprises an SP 8100 chromatograph (Spectra Physics) and an SP 4270 integrator (Spectra Physics) and an LS-1 fluorescence detector (Perkin Elmer). The fluorescence was recorded at the wavelengths of 360 nm excitation and 450 nm emission.
Histamine release from peritoneal mast cells (μl/ml)

[4] = test system: histamine secretion; details: A. Phillips et al., Life Sci. 41 (1987); cited from earlier work

Substance	Testosterone-lowering effect on infusion by minipumps: Dose per day [1] [μg/24 h/rat]	Ovulation-inhibiting dose (ED 100) [2] [ng per rat s.c.]	Histamine release, percentage relative to total histamine release on boiling ([3]; 0.01 (μl/ml) antagonist) [%]	Histamine release, percentage relative to total histamine release on boiling ([3]; 0.1 (μl/ml) antagonist) [%]	Histamine release, percentage relative to total histamine release on boiling ([3]; 1 (μl/ml) antagonist) [%]	Histamine release, percentage relative to total histamine release on boiling ([3]; 10 (μl/ml) antagonist) [%]	Histamine release, percentage relative to total histamine release on boiling ([3]; 100 (μl/ml) antagonist) [%]	histamine secretion [4]
Ac-D-NaI-D-p-Cl-Phe-D-Trp-Ser-Tyr-D-Ser(Rha)-Leu-Ser(Rha)-pro-Azagly-NH2 [Example 1]	120	120	0.33	2.82	-2.16	-5.37	-8.61	
Ac-D-Nal-D-p-Cl-D-Phe-D-Trp-Ser-Tyr-D-Ser(Rha)-Leu-Arg-Pro-Azagly-NH2 [Comparison substance, reference compound]			2.6	2.1	15.3	92.4	107.6	
Ac-D-Nal-D-p-Cl-Phe-D-Pal-Ser-Tyr-D-Ser(Rha)-Leu-Ser (Rha)-Pro-Azagly-NH2 [Example 2]	120	256	2.5	4.6	3.7	0.9	0.0	
Ac-D-Nal-D-p-Cl-Phe-D-Pal-Ser-Tyr-D-Ser(Rha)-Leu-Ser(Fuc)-Pro-Azagly-NH2 [Example 4]	60	64						
Ac-D-Nal-D-p-Cl-Phe-D-Pal-Ser-Tyr-D-Ser(Rha)-Leu-Ser(Rha)-Pro-D-Ala-NH2 [Example 5]	60	64	1.9	2.4	0.9	0.3	3.8	
Ac-D-Nal-D-p-Cl-Phe-D-Trp-Ser-Tyr-D-Ser(Rha)-Leu-Ser(Xyl)-Pro-Azagly-NH2 [Example 3]	120	512						
Nal-Glu								greatly reduced
